Assay results from patent US20240366813A1, “PEPTIDE-UREA DERIVATIVE, PHARMACEUTICAL COMPOSITION CONTAINING SAME AND APPLICATION THEREOF” (Bivision Pharmaceuticals, Inc., priority 0001, published 2024).
Several values for one entry are separate records, joined by “and”; a condition that tells them apart may be missing. Identical values can stand only once.

Assays:
[1] = tested on: PSMA-positive cells LNCap; test: Uptake of labeled compounds by PSMA-positive cells LNCap; assay type: cell-based; conditions: 37° C., 0.5 h
Procedure: LNCap cells (Shangcheng Beina Chuanglian Biotechnology Co., Ltd., Industrial Park, Chengguan Town, Shangcheng County, Xinyang City, Henan Province) were revived and passaged for expansion. After the cells were expanded to a sufficient amount, cells were seeded in a 24-well plate at a density of 1×10^4 cells/well. Uptake tests were performed when cells grew to 80%-90% confluence.
The above labeled compounds ^177Lu-E1, ^177Lu-E2, ^177Lu-E3, ^177Lu-E5, ^177Lu-E9, ^177Lu-E14 and ^177Lu-PSMA-617 were diluted with serum-free medium into 10000, 1000, 100, 10, 1, 0.1 and 0 nM. 1 mL of the diluted solution was added to a 24-well plate, and incubated at 37° C. for 0.5 h. The supernatant was discarded and the cells were washed 3 times with PBS. 250 μL of 1M NaOH solution was added to each well. The cells were pipetted until they were completely dissolved, and transferred to a scintillation vial. 250 μL of NaOH solution was added to each well again to wash the bottom of the well and transferred to a scintillation vial. 2 mL of scintillation fluid was added to each scintillation vial and shaken well. A liquid scintillation counter was used to detect radioactive counts in each vial.

[2] = In vivo metabolism test of 177Lu-labeled complex in SD rats (plasma radioactive counts); conditions: for plasma radioactive counts: individual rat, 100 μL plasma; for plasma radioactive counts, MEAN: mean of rats
Procedure: Eighteen SD rats (Hangzhou Ziyuan Experimental Animal Technology Co., Ltd.), male, weighing 180-200 g, were randomly divided into 6 groups, 3 rats in each group. […] of the labeled precursor compound was injected into the tail vein of each mouse. 250 μL of orbital blood was collected into anticoagulant tubes at 5 min, 0.5 h, 1 h, 2 h, 4 h, 8 h and 24 h after administration. Blood was centrifuged at 3000 rpm for 10 min, and 100 μL of plasma was taken into scintillation vials. 2 mL of scintillation fluid was added to each scintillation vial and shaken well. A liquid scintillation counter was used to detect radioactive counts in each vial.

[3] = 5 min after tail vein injection
[4] = 0.5 h after tail vein injection

Question: For `O=C([O-])CN1CCN(CC(=O)[O-])CCN(CC(=O)Nc2nc3cc(C(=O)NC(Cc4ccc5ccccc5c4)C(=O)NCCCCC(NC(=O)NC(CCC(=O)O)C(=O)O)C(=O)O)ccc3s2)CCN(CC(=O)[O-])CC1.[177Lu+3]` (centres unmarked) [^177Lu-E1], which “uptake by LNCap cells” value ([1]; 0.1 nM) is on record?
Answer: 39 cpm

Question: And the “uptake by LNCap cells” value ([1]; 1 nM)?
Answer: 169 cpm

Question: And the “uptake by LNCap cells” value ([1]; 10 nM)?
Answer: 77 cpm

Question: What about the “uptake by LNCap cells” value ([1]; 100 nM) of the same compound?
Answer: 121 cpm

Question: What about the “uptake by LNCap cells” value ([1]; 1000 nM) of the same compound?
Answer: 331 cpm

Question: What about the “uptake by LNCap cells” value ([1]; 10000 nM) of the same compound?
Answer: 1595 cpm

Question: And the plasma radioactive counts [2, 3]?
Answer: 28305 cpm and 17143 cpm

Question: What about the plasma radioactive counts [2, 4] of the same compound?
Answer: 9829 cpm and 8252 cpm

Question: What about the plasma radioactive counts ([2]; 1 h after tail vein injection) of the same compound?
Answer: 3505 cpm and 3389 cpm

Question: And the plasma radioactive counts ([2]; 2 h after tail vein injection)?
Answer: 615 cpm and 1288 cpm

Question: And the plasma radioactive counts ([2]; 4 h after tail vein injection)?
Answer: 163 cpm and 315 cpm

Question: What about the plasma radioactive counts ([2]; 8 h after tail vein injection) of the same compound?
Answer: 174 cpm and 179 cpm

Question: What about the plasma radioactive counts ([2]; 24 h after tail vein injection) of the same compound?
Answer: 151 cpm and 169 cpm

Question: And the “plasma radioactive counts, MEAN” value [2, 3]?
Answer: 22724 cpm

Question: What about the “plasma radioactive counts, MEAN” value [2, 4] of the same compound?
Answer: 9041 cpm

Question: What about the “plasma radioactive counts, MEAN” value ([2]; 1 h after tail vein injection) of the same compound?
Answer: 3447 cpm

Question: And the “plasma radioactive counts, MEAN” value ([2]; 2 h after tail vein injection)?
Answer: 952 cpm

Question: And the “plasma radioactive counts, MEAN” value ([2]; 4 h after tail vein injection)?
Answer: 239 cpm

Question: What about the “plasma radioactive counts, MEAN” value ([2]; 8 h after tail vein injection) of the same compound?
Answer: 177 cpm

Question: What about the “plasma radioactive counts, MEAN” value ([2]; 24 h after tail vein injection) of the same compound?
Answer: 160 cpm

Question: With `O=C([O-])CN1CCN(CC(=O)[O-])CCN(CC(=O)N2CC3(CCC(C(=O)NC(Cc4ccc5ccccc5c4)C(=O)NCCCCC(NC(=O)NC(CCC(=O)O)C(=O)O)C(=O)O)CC3)C2)CCN(CC(=O)[O-])CC1.[177Lu+3]` (centres unmarked) [^177Lu-E2] as the compound, how does the “uptake by LNCap cells” value ([1]; 0.1 nM) read?
Answer: 29 cpm

Question: And the “uptake by LNCap cells” value ([1]; 1 nM)?
Answer: 91 cpm

Question: And the “uptake by LNCap cells” value ([1]; 10 nM)?
Answer: 344 cpm

Question: What about the “uptake by LNCap cells” value ([1]; 100 nM) of the same compound?
Answer: 596 cpm

Question: What about the “uptake by LNCap cells” value ([1]; 1000 nM) of the same compound?
Answer: 775 cpm

Question: What about the “uptake by LNCap cells” value ([1]; 10000 nM) of the same compound?
Answer: 1328 cpm

Question: What about the plasma radioactive counts [2, 3] of the same compound?
Answer: 37703 cpm and 41406 cpm

Question: What about the plasma radioactive counts [2, 4] of the same compound?
Answer: 18427 cpm and 15030 cpm

Question: And the plasma radioactive counts ([2]; 1 h after tail vein injection)?
Answer: 7473 cpm and 5428 cpm

Question: What about the plasma radioactive counts ([2]; 2 h after tail vein injection) of the same compound?
Answer: 1863 cpm and 1189 cpm

Question: What about the plasma radioactive counts ([2]; 4 h after tail vein injection) of the same compound?
Answer: 296 cpm and 219 cpm

Question: And the plasma radioactive counts ([2]; 8 h after tail vein injection)?
Answer: 178 cpm and 190 cpm

Question: And the plasma radioactive counts ([2]; 24 h after tail vein injection)?
Answer: 167 cpm and 170 cpm

Question: And the “plasma radioactive counts, MEAN” value [2, 3]?
Answer: 39555 cpm

Question: And the “plasma radioactive counts, MEAN” value [2, 4]?
Answer: 16729 cpm

Question: And the “plasma radioactive counts, MEAN” value ([2]; 1 h after tail vein injection)?
Answer: 6451 cpm

Question: And the “plasma radioactive counts, MEAN” value ([2]; 2 h after tail vein injection)?
Answer: 1526 cpm

Question: What about the “plasma radioactive counts, MEAN” value ([2]; 4 h after tail vein injection) of the same compound?
Answer: 258 cpm

Question: And the “plasma radioactive counts, MEAN” value ([2]; 8 h after tail vein injection)?
Answer: 184 cpm

Question: What about the “plasma radioactive counts, MEAN” value ([2]; 24 h after tail vein injection) of the same compound?
Answer: 169 cpm

Question: Which results are given for `O=C([O-])CN1CCN(CC(=O)[O-])CCN(CC(=O)N2CCC3(CCC(C(=O)NC(Cc4ccc5ccccc5c4)C(=O)NCCCCC(NC(=O)NC(CCC(=O)O)C(=O)O)C(=O)O)CC3)CC2)CCN(CC(=O)[O-])CC1.[177Lu+3]` (centres unmarked) [^177Lu-E9]?
Answer: uptake by LNCap cells ([1]; 0.1 nM): 56 cpm; uptake by LNCap cells ([1]; 1 nM): 55 cpm; uptake by LNCap cells ([1]; 10 nM): 84 cpm; uptake by LNCap cells ([1]; 100 nM): 140 cpm; uptake by LNCap cells ([1]; 1000 nM): 405 cpm; uptake by LNCap cells ([1]; 10000 nM): 1194 cpm; plasma radioactive counts [2, 3]: 30764 cpm and 38134 cpm and 30001 cpm; plasma radioactive counts [2, 4]: 10391 cpm and 12249 cpm and 8575 cpm; plasma radioactive counts ([2]; 1 h after tail vein injection): 4483 cpm and 4139 cpm and 2519 cpm; plasma radioactive counts ([2]; 2 h after tail vein injection): 892 cpm and 652 cpm and 346 cpm; plasma radioactive counts ([2]; 4 h after tail vein injection): 210 cpm and 196 cpm and 197 cpm; plasma radioactive counts ([2]; 8 h after tail vein injection): 171 cpm and 184 cpm and 161 cpm; plasma radioactive counts ([2]; 24 h after tail vein injection): 164 cpm and 162 cpm and 183 cpm; plasma radioactive counts, MEAN [2, 3]: 32966 cpm; plasma radioactive counts, MEAN [2, 4]: 10405 cpm; plasma radioactive counts, MEAN ([2]; 1 h after tail vein injection): 3714 cpm; plasma radioactive counts, MEAN ([2]; 2 h after tail vein injection): 630 cpm; plasma radioactive counts, MEAN ([2]; 4 h after tail vein injection): 201 cpm; plasma radioactive counts, MEAN ([2]; 8 h after tail vein injection): 172 cpm; plasma radioactive counts, MEAN ([2]; 24 h after tail vein injection): 170 cpm

Question: What does the source list for `O=C([O-])CN1CCN(CC(=O)[O-])CCN(CC(=O)NC23CC(C(=O)NC(Cc4ccc5ccccc5c4)C(=O)NCCCCC(NC(=O)NC(CCC(=O)O)C(=O)O)C(=O)O)(C2)C3)CCN(CC(=O)[O-])CC1.[177Lu+3]` (centres unmarked) [^177Lu-E14]?
Answer: uptake by LNCap cells ([1]; 0.1 nM): 28 cpm; uptake by LNCap cells ([1]; 1 nM): 82 cpm; uptake by LNCap cells ([1]; 10 nM): 220 cpm; uptake by LNCap cells ([1]; 100 nM): 345 cpm; uptake by LNCap cells ([1]; 1000 nM): 479 cpm; uptake by LNCap cells ([1]; 10000 nM): 362 cpm; plasma radioactive counts [2, 3]: 42150 cpm and 41058 cpm and 45756 cpm; plasma radioactive counts [2, 4]: 18047 cpm and 18268 cpm and 18614 cpm; plasma radioactive counts ([2]; 1 h after tail vein injection): 7200 cpm and 6304 cpm and 6154 cpm; plasma radioactive counts ([2]; 2 h after tail vein injection): 1415 cpm and 1686 cpm and 1863 cpm; plasma radioactive counts ([2]; 4 h after tail vein injection): 203 cpm and 198 cpm and 259 cpm; plasma radioactive counts ([2]; 8 h after tail vein injection): 201 cpm and 206 cpm and 203 cpm; plasma radioactive counts ([2]; 24 h after tail vein injection): 196 cpm and 175 cpm and 159 cpm; plasma radioactive counts, MEAN [2, 3]: 42988 cpm; plasma radioactive counts, MEAN [2, 4]: 18310 cpm; plasma radioactive counts, MEAN ([2]; 1 h after tail vein injection): 6553 cpm; plasma radioactive counts, MEAN ([2]; 2 h after tail vein injection): 1655 cpm; plasma radioactive counts, MEAN ([2]; 4 h after tail vein injection): 220 cpm; plasma radioactive counts, MEAN ([2]; 8 h after tail vein injection): 203 cpm; plasma radioactive counts, MEAN ([2]; 24 h after tail vein injection): 177 cpm
